Source: publication PMC10534582, “A Pharmacokinetic Study of Sixteen Major Bioactive Components of Jinshui-Huanxian Granules in Pulmonary Fibrosis Model and Control Rats Using Orbitrap Fusion Mass Spectrometry” (Molecules, 2023)
Where two headings read alike, the source gives them in different places.

How the values were obtained:
[1] = Pharmacokinetics of JHG components in pulmonary fibrosis (PF) model rats after intragastric administration of JHGs (plasma, Orbitrap Fusion MS); format: in vivo, Sprague Dawley (SD) rats; details: for half-life / MRT last / Tmax / Cmax / AUC(0-inf) / AUC(0-t) / MRT inf: male, rat, plasma, po; for MRT last: read-out: MRT(0-t); for Cmax: intragastric JHGs; for MRT inf: read-out: MRT(0-∞); for pharmacokinetic process (versus dosage): low, medium, high doses of JHGs; for Cmax, PF model group compared with the control group: medium dose selected for comparison; for AUCs, PF model group compared with the control group: p < 0.05
Procedure: Healthy male Sprague Dawley (SD) rats of SPF grade (240 ± 20 g) were purchased from Sipeifu (Beijing, China) Biotechnology Co., Ltd. (Beijing, China), Certificate of Conformity No.: SCYK (Beijing, China) 2019-0015, Animal Quality Certificate No.: 110324220102348616. They were housed in the Animal Center of Henan University of Traditional Chinese Medicine, which passed the ethical audit, ethics number: DWLL202208003, breeding Co. 24 °C, relative humidity 50 ± 2%. The animals fasted for 12 h before the experiment and drank water freely. All feeding and experimental studies on experimental animals were in accordance with the regulations on the Management of Experimental Animals in Henan Province.
The PF model in rats was replicated by reference to the conclusion tracheal intubation method in the literature. After the rats were anesthetized, bleomycin (BLM) (5 mg/kg) was used as an induction agent and followed the tracheal intubation method. BLM solution was aspirated with a 1 mL syringe and injected into the indwelling syringe. A total of 0.3 mL of air was rapidly pushed into the syringe, the rats were immediately stroked upright so that the BLM solution was evenly distributed in both lungs. BLM was given on day 0 for modeling, then gavage was taken after day 28, with fasting without water for 12 h before sampling. The histopathological examination was performed to verify the construction of the PF model. The rats were anesthetized by the abdominal cavity, then the lung tissues were violently shocked by opening the chest, and the right lower lobe of the lung was taken and fixed in 4% formaldehyde solution, then dehydrated by sucrose gradient, paraffin-embedded, and sectioned. H&E and Masson staining were performed to observe the degree of alveolitis of lung tissue and the degree of pulmonary fibrosis, respectively. The inflammation and fibrosis of lung tissues was observed under the light microscope.
Twenty-four healthy male SD rats or PF model rats, weighing 240 ± 20 g, fasted for 12 h before the experiment and drank water freely. Both kinds of rats were randomly divided into four groups. Blank group: equal dose of water by intragastric, low dose; administration group: rats were given the equivalent human dose of JHGs by intragastric, i.e., 10.8 g of raw drug/kg/d (5.70 g/kg/d); medium-dose administration group: 2 times the human equivalent dose of JHGs by intragastric, i.e., 21.6 g of raw drug/kg/d (11.41 g/kg/d); high-dose administration group: 4 times the human equivalent dose of JHG, i.e., 43.2 g of raw drug/kg/d (22.81 g/kg/d). Blood was collected from the tail vein before and 0.083, 0.25, 0.5, 0.75, 1, 1.5, 2, 3, 4, 6, 8, 12, 18, and 24 h after dosing, respectively. A total of 0.5 mL was placed in a heparin sodium centrifuge tube. Whole blood was left for 30 min and then centrifuged in a low-temperature freezing centrifuge (4 °C, 3000 r/min) for 15 min. The upper layer of plasma was collected and stored in a refrigerator at −80 °C.
We added 50 μL of internal standard solution and 800 μL of methanol, shook for 15 min, then centrifuged at 12,000 r/min for 10 min, took the supernatant, dried in a centrifuge concentrator, added 50 μL of the initial mobile phase to the residue, dissolved, centrifuged, then separated the upper layer of the solution used as the test solution. A total of 5 μL test solution was taken into the sample for analysis. For each compound with a certain dosage, the same procedure is repeated six times in parallel. The concentration in plasma was calculated by the internal standard method.
Accucore C18 (100 mm × 2.1 mm, 2.6 μm) column at 25 °C, the mobile phase was methanol (A)-0.1% formic acid aqueous solution (B). The gradient elution program was 0–4 min (65% B-40% B), 4–5 min (40% B-40% B), 5–6 min (40% B-28% B), and 6–7 min (28% B-19% B), 7–7.5 min (19% B-10% B), 7.5–11 min (10% B-0% B), the flow rate was 0.2 mL/min, and the injection volume was 5 μL. […]

[2] = after oral administration; cited from earlier work
[3] = PF model rats, JHGs high dose 22.81 g/kg/d
[4] = PF model rats, JHGs low dose 5.70 g/kg/d
[5] = PF model rats, JHGs medium dose 11.41 g/kg/d
[6] = Sprague Dawley, 5.7 g/kg/day, PF model rats, JHGs low dose 5.70 g/kg/d
[7] = Sprague Dawley, 5.7 g/kg/day, PF model rats, JHGs low dose 5.70 g/kg/d, read-out: Tmax
[8] = Sprague Dawley, 5.7 g/kg/day, PF model rats, low dose 5.70 g/kg/d, n=6 (1st of 3 stacked values)
[9] = Sprague Dawley, 11.41 g/kg/day, PF model rats, JHGs medium dose 11.41 g/kg/d
[10] = Sprague Dawley, 11.41 g/kg/day, PF model rats, JHGs medium dose 11.41 g/kg/d, read-out: Tmax
[11] = Sprague Dawley, 11.41 g/kg/day, PF model rats, medium dose 11.41 g/kg/d, n=6 (2nd of 3 stacked values)
[12] = Sprague Dawley, 22.81 g/kg/day, PF model rats, JHGs high dose 22.81 g/kg/d
[13] = Sprague Dawley, 22.81 g/kg/day, PF model rats, JHGs high dose 22.81 g/kg/d, read-out: Tmax
[14] = Sprague-Dawley, 5.7 g/kg/day, PF model rats, JHGs low dose 5.70 g/kg/d
[15] = Sprague-Dawley, 11.41 g/kg/day, PF model rats, JHGs medium dose 11.41 g/kg/d
[16] = Sprague-Dawley, 22.81 g/kg/day, PF model rats, JHGs high dose 22.81 g/kg/d
[17] = Sprague-Dawley, 22.81 g/kg/day, PF model rats, high dose 22.81 g/kg/d, n=6 (3rd of 3 stacked values)
[18] = Sprague-Dawley, PF model rats, after administration of JHGs, read-out: Tmax of all dosages

Row | Compound | Clearances [1, 3] [mL/min/kg] | Vss [1, 3] [L] | Clearances [1, 4] [mL/min/kg] | Vss [1, 4] [L] | Clearances [1, 5] [mL/min/kg] | Vss [1, 5] [L] | half-life [1, 6] [h] | MRT last [1, 6] [h] | Tmax [1, 7] [h] | Cmax [1, 8] [ng/mL] | half-life [1, 9] [h] | MRT last [1, 9] [h] | Tmax [1, 10] [h] | Cmax [1, 11] [ng/mL] | half-life [1, 12] [h] | Tmax [1, 13] [h] | AUC(0-inf) [1, 14] [ng·h/mL] | AUC(0-t) [1, 14] [ng·h/mL] | MRT inf [1, 14] [h] | AUC(0-inf) [1, 15] [ng·h/mL] | further results
1 | COc1ccc(-c2cc(=O)c3c(OC)c(OC)c(OC)c(OC)c3o2)cc1OC [Nobiletin] | 1307 ± 264.2 | 864 ± 195.9 | 119 ± 11.8 | 166.86 ± 26.65 | 327.5 ± 83.7 | 769.75 ± 168.2 | 17.6 ± 1.82 | 8.86 ± 0.2 | 0.75 | 2.97 ± 0.67 | 31.5 ± 13.3 | 9.13 ± 0.25 | 0.75 | 3.37 ± 0.53 | 9.59 ± 3.39 | 0.75 | 33.4 ± 4.41 | 21.6 ± 3.48 | 23.2 ± 2.12 | 43.1 ± 11.1 | AUC(0-t) [1, 15]: 20 ± 2.62 ng·h/mL; MRT inf [1, 15]: 41.8 ± 18.4 h; AUC(0-inf) [1, 16]: 18 ± 3.39 ng·h/mL; AUC(0-t) [1, 16]: 15.5 ± 2.99 ng·h/mL; MRT last [1, 16]: 6.66 ± 0.35 h; MRT inf [1, 16]: 11.1 ± 1.44 h; Cmax [1, 17]: 3.57 ± 0.3 ng/mL; Tmax [1, 18]: ≤ 2 h
2 | CC1=C2CC3C(CC(=O)C4CC(O)CCC43C)C2CCC12OC1CC(C)CNC1C2C (stereo not shown) [Peimisine] | 5.83 ± 1 | 4.24 ± 0.61 | 2.33 ± 0.33 | 1.62 ± 0.32 | 4.33 ± 0.83 | 2.91 ± 0.52 | 7.2 ± 0.28 | 7.56 ± 0.17 | 1.5 | 2.05 ± 0.49 | 8.25 ± 0.94 | 7.92 ± 0.2 | 3.67 ± 0.58 | 2.51 ± 0.55 | 5.96 ± 0.23 | 8 | 14.6 ± 2.48 | 12.3 ± 2.23 | 11.8 ± 0.51 | 26.8 ± 5.8 | pharmacokinetic process (versus dosage) ([1]; PF model rats): linear pharmacokinetic process; MRT(0–t), PF model group compared with the control group ([1]; PF model vs control rats): decreased; AUC(0-t) [1, 15]: 23.4 ± 5.01 ng·h/mL; MRT inf [1, 15]: 11.4 ± 1.05 h; AUC(0-inf) [1, 16]: 33.1 ± 6.82 ng·h/mL; AUC(0-t) [1, 16]: 29.7 ± 5.82 ng·h/mL; MRT last [1, 16]: 9.84 ± 0.24 h; MRT inf [1, 16]: 12.2 ± 0.39 h; Cmax [1, 17]: 2.76 ± 0.48 ng/mL
3 | COc1ccc(C(C)=O)c(O)c1 [Paeonol] | 4714 ± 1513 | 12017.41 ± 3866.6 | 1560 ± 427.7 | 2980.29 ± 449.33 | 5269.7 ± 1130 | 8115.77 ± 895.52 | 25.5 ± 8.84 | 9.14 ± 0.1 | 0.5 | 2.79 ± 0.6 | 19.2 ± 6.63 | 9.7 ± 0.37 | 0.75 | 3.16 ± 0.22 | 36.4 ± 25.6 | 3 | 41.8 ± 12.1 | 21.8 ± 2.86 | 33.8 ± 11.4 | 41.6 ± 9.78 | Cmax, PF model group compared with the control group ([1]; PF model vs control rats): significantly decreased; AUCs, PF model group compared with the control group ([1]; PF model vs control rats): significantly decreased; AUC(0-t) [1, 15]: 24.5 ± 2.15 ng·h/mL; MRT inf [1, 15]: 26.9 ± 8.95 h; AUC(0-inf) [1, 16]: 83.4 ± 34.3 ng·h/mL; AUC(0-t) [1, 16]: 35 ± 1.86 ng·h/mL; MRT last [1, 16]: 9.41 ± 0.4 h; MRT inf [1, 16]: 49.6 ± 33.3 h; Cmax [1, 17]: 3.63 ± 0.33 ng/mL; Tmax [1, 18]: ≤ 2 h; bioavailability in vivo [2]: poor
4 | O=c1cc(-c2ccc(O)c(O)c2)oc2cc(O[C@@H]3O[C@H](CO)[C@@H](O)[C@H](O)[C@H]3O)cc(O)c12 [Cynaroside] |  |  |  |  |  |  |  |  |  |  |  |  |  |  |  |  |  |  |  |  | Cmax and AUCs (AUC(0–t), AUC (0–∞)) compared among the analytes ([1]; PF model rats): highest; correlation between CL, AUC, t½, and dose ([1]; PF model rats): there was a correlation; pharmacokinetic process (versus dosage) ([1]; PF model rats): linear pharmacokinetic process; AUC(0–t) in the model group relative to the control group ([1]; PF model vs control rats): approximately twice as high; Cmax in the model group relative to the control group ([1]; PF model vs control rats): approximately twice as high
5 | O=c1cc(-c2ccc(O)cc2)oc2cc(OC3OC(CO)C(O)C(O)C3O)cc(O)c12 (stereo not shown) [Apigenin-7-glucoside] |  |  |  |  |  |  |  |  |  |  |  |  |  |  |  |  |  |  |  |  | Tmax, PF model group compared with the control group ([1]; PF model vs control rats): decreased significantly; Cmax, PF model group compared with the control group ([1]; PF model vs control rats): significantly decreased; AUCs, PF model group compared with the control group ([1]; PF model vs control rats): significantly decreased; Tmax [1, 18]: ≤ 2 h
